Test results from patent US7041465B1 (priority 1999, dated 2006).
Read-outs that look alike come from different tables or passages of the source.

Tests used:
FimH = FimH (Escherichia coli, UniProt P08191); conditions: peptides coated at 2 nmol/50 μl, FimC protein at 0.1 nmol/50 μl; increasing concentrations of FimH (5–25 pmol/well); FIG. 12
Protocol: (§1) The peptides were diluted in phosphate buffered saline (PBS) (120 mM NaCl, 2.7 mM KCl, 10 mM, […], pH 7.4) to 2 nmol/50 μl. FimC protein was diluted to 0.1 nmol/50 μl and coated overnight onto microtiter wells with 50 μl/well at 4° C. The ELISA assay was carried out as described in Kuehn et al., 1993 and Hung et al., 1996. Briefly, the wells were washed three times with PBS and blocked with 3% Bovine Serum Albumin (BSA) in PBS for two hours at 25° C. Then the wells were washed three times with PBS. The FimC-FimH co-complex was incubated in 3 M urea to separate the two proteins. Pure FimH in 3 M urea was collected from the flow through of a Source 15S column (Pharmacia). See Barnhart et al., PNAS USA 97: 7709–7714 (2000). The wells were incubated with 50 μl of FimH in 3% BSA-PBS diluted to 5–25 pmol/well FimH for 45 minutes at 25° C. The wells were washed 3 times with PBS followed by incubation with a 1:1000 dilution of mouse anti-FimH antibodies in 3% BSA-PBS for 45 minutes at 25° C. The wells were washed 3 times with PBS followed by incubation with a 1:1000 dilution of goat antiserum to mouse IgG (Sigma) conjugated to alkaline phosphatase diluted in 3% BSA-PBS for 45 minutes at 25° C. The wells were washed 3 times with PBS and washed 3 times with developing buffer (10 mM diethanolamine, 0.4 mM MgCl2). The ELISA was developed by adding 50 μl of substrate (50 μl of filtered 1 mg/ml p-nitrophenyl phosphate; Sigma) in developing buffer. The reaction was incubated for 1 hour at 25° C. in the dark and the absorbance at 405 nm was read.
(§2) The competition assays were carried out similarly. FimC was coated onto microtiter wells at 0.1 nmol/well. FimH at 5 pmol/well in 3% BSA-PBS was added to the FimC coated wells in the presence or the absence of the FimC or FimG peptide at 2 nmol/well or the indicated peptide concentration. Further, increasing concentrations of FimH were incubated with constant concentrations of the FimC or FimG peptides or the FimC protein immobilized on microtiter wells. […] FimH was added to the FimC coated wells in the presence or absence of peptides to FimC or FimG.

FimH binding to FimC = FimH binding to FimC (Escherichia coli, UniProt P08191); conditions: FimC coated at 0.1 nmol/well, FimH 5 pmol/well; for Inhibition of FimH binding to FimC immobilized on microtiter wells: peptide at 2 nmol/well (tested concentration), FIG. 14; for FimH binding to immobilized FimC in the presence of increasing concentrations of peptide: FIG. 13
Sequence of FimH binding to FimC (P08191 22-300): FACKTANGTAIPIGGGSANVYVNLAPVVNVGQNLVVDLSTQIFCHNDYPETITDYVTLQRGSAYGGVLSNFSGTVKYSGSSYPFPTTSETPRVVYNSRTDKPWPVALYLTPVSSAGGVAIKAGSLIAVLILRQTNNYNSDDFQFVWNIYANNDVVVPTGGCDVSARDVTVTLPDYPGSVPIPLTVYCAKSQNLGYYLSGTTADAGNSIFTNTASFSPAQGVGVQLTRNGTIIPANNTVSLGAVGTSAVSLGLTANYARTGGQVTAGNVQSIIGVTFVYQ
Protocol: as §1, §2

Sequence of FimH (P08191 22-300): as above

With DVTITVNGK [FimG peptide] the “FimH binding to the immobilized peptide or FimC protein (ELISA, anti-FimH antibodies, absorbance at 405 nm)” value (FimH) was “bound well” and the “Inhibition of FimH binding to FimC immobilized on microtiter wells” value (FimH binding to FimC) was “did not inhibit”.

In the case of NTLQLAIISR [FimC peptide], the “FimH binding to the immobilized peptide or FimC protein (ELISA, anti-FimH antibodies, absorbance at 405 nm)” value (FimH) is reported as “bound well”, the “FimH binding to immobilized FimC in the presence of increasing concentrations of peptide” value (FimH binding to FimC) is reported as “further decreased the ability of FimH to bind to FimC” and the “FimH binding to immobilized FimC in the presence of increasing concentrations of peptide” value (FimH binding to FimC; listed as FimC polypeptide) is reported as “inhibit FimH binding to FimC”. The “Inhibition of FimH binding to FimC immobilized on microtiter wells” value (FimH binding to FimC) was “inhibited the ability of FimH to bind to FimC”.
